Results from patent US20170015649A1, “N-Thio-anthranilamid compounds and their use as pesticides” (BASF SE, priority 2005, published 2017).
Where two headings read alike, the source gives them in different places.

Key:
[1] = system: Southern Armyworm (Spodoptera eridania), 2nd Instar Larvae; assay: whole plant or invertebrate; assay type: in vivo; conditions: in Phaseolus lunatus, foliar, 120 h
Method: The active compounds were formulated for testing the activity against insects and arachnids as a 10.000 ppm solution in a mixture of 35% acetone and water, which was diluted with water, if needed.
A Sieva lima bean leaf was dipped in the test solution and allowed to dry. The leaf was then placed in a petri dish containing a filter paper on the bottom and ten 2nd instar caterpillars. At 5 days, observations are made of mortality and reduced feeding.

[2] = system: Diamond Back Moth (Plutella xylostella); assay: Activity against diamond back moth, cabbage leaf disk dip; assay type: in vivo; conditions: foliar
Method: The active compounds were formulated in 50:50 acetone:water and 0.1% (vol/vol) Alkamuls EL 620 surfactant. A 6 cm leaf disk of cabbage leaves was dipped in the test solution for 3 seconds and allowed to air dry in a Petri plate lined with moist filter paper. The leaf disk was inoculated with 10 third instar larvae and kept at 25-27° C. and 50-60% humidity for 3 days. Mortality was assessed after 72 h of treatment.

[3] = system: Yellowfever Mosquito (Aedes aegyptii) Larvae; assay: Activity against mosquito larvae via water treatment; assay type: in vivo; conditions: read-out: mortality of yellowfever mosquito
Method: 11. Activity Against Yellowfever Mosquito (Aedes aegyptii), House Mosquito (Culex quinquefasciatus) and Malaria Mosquito (Anopheles albimanus) Larvae Via Water Treatment
Well plates were used as test arenas. The active ingredient was dissolved in acetone and diluted with water to obtain the concentrations needed. The final solutions containing appr. 1% acetone were placed into each well. Approximately 10 mosquito larvae (4th-instars) in 1 ml water were added to each well. Larvae were fed one drop of liver powder each day. The dishes were covered and maintained at 22° C. Mortality was recorded daily and dead larvae and live or dead pupae were removed daily. At the end of the test remaining live larvae were recorded and percent mortality was calculated.

[4] = system: Vetch Aphid (Megoura viciae); assay: Activity against vetch aphid, bean leaf disks; assay type: in vivo; conditions: foliar, 144 h
Method: Bean leaf disks were placed into microtiterplates filled with 0.8% agar-agar and 2.5 ppm OPUS™. The leaf disks were sprayed with 2.5 μl of the test solution and 5 to 8 adult aphids were placed into the microtiterplates which were then closed and kept at 22-24° C. and 35-45% under fluorescent light for 6 days. Mortality was assessed on the basis of vital, reproduced aphids. Tests were replicated 2 times.

[5] = system: Tobacco Budworm (Heliothis virescens); assay: whole plant or invertebrate; conditions: 144 h
[6] = system: Boll Weevil (Anthonomus grandis); assay: Activity against boll weevil, eggs in microtiterplates; assay type: in vivo; conditions: eggs sprayed with 20 μl test solution, 3 to 5 days
Method: 10 to 15 eggs were placed into microtiterplates filled with 2% agar-agar in water and 300 ppm formaline. […] Mortality was assessed on the basis of the remaining unhatched eggs or larvae on the agar surface and/or quantity and depth of the digging channels caused by the hatched larvae. Tests were replicated 2 times.

[7] = system: Cotton Aphid (Aphis gossypii); assay: Activity against cotton aphid, cotton cotyledon dip; assay type: in vivo; conditions: 120 h, cotyledons dipped, after 5 days
From the text: (§1) The active compounds were formulated in 50:50 acetone:water and 100 ppm Kinetic™ surfactant.
Cotton plants at the cotyledon stage (one plant per pot) were infested by placing a heavily infested leaf from the main colony on top of each cotyledon. The aphids were allowed to transfer to the host plant overnight, and the leaf used to transfer the aphids was removed. The cotyledons were dipped in the test solution and allowed to dry. After 5 days, mortality counts were made.

[8] = system: Silverleaf Whitefly (Bemisia argentifolii); assay: Activity against silverleaf whitefly, cotton cotyledon dip; assay type: in vivo; conditions: 72 h, cotyledons dipped, adults, 3 days after treatment
Method: as §1
Selected cotton plants were grown to the cotyledon state (one plant per pot). The cotyledons were dipped into the test solution to provide complete coverage of the foliage and placed in a well-vented area to dry. Each pot with treated seedling was placed in a plastic cup and 10 to 12 whitefly adults (approximately 3-5 day old) were introduced. The insects were collected using an aspirator and an 0.6 cm, non-toxic Tygon™ tubing (R-3603) connected to a barrier pipette tip. The tip, containing the collected insects, was then gently inserted into the soil containing the treated plant, allowing insects to crawl out of the tip to reach the foliage for feeding. The cups were covered with a reusable screened lid (150 micron mesh polyester screen PeCap from Tetko Inc). Test plants were maintained in the holding room at about 25° C. and 20-40% relative humidity for 3 days avoiding direct exposure to the fluorescent light (24 hour photoperiod) to prevent trapping of heat inside the cup. Mortality was assessed 3 days after treatment of the plants.

[9] = system: Mediterranean Fruitfly (Ceratitis capitata); assay: Activity against Mediterranean fruitfly, eggs in microtiterplates; assay type: in vivo; conditions: 144 h, eggs sprayed with 5 μl test solution, 6 days
Method: 50 to 80 eggs were placed into microtiterplates filled with 0.5% agar-agar and 14% diet in water. […] Mortality was assessed on the basis of the agility of the hatched larvae. Tests were replicated 2 times.

[10] = 2500 ppm, leaf disks sprayed with 2.5 μl, 6 days, compared to 0% mortality of untreated controls, read-out: mortality
[11] = 300 ppm, leaf dipped, at 5 days, read-out: mortality
[12] = 300 ppm, leaf disk dipped, third instar larvae, after 72 h, read-out: mortality

SMILES | mortality at 2500 ppm [5] | mortality at 2500 ppm [6] | mortality at 2500 ppm [4, 10] | mortality at 300 ppm [7] | mortality at 300 ppm [1, 11] | mortality at 300 ppm [8] | mortality at 2500 ppm [9] | mortality at 300 ppm [2, 12] | further results
CCN(CC)S(=O)(=O)NC(=O)c1cccc(C)c1NC(=O)c1cc(Br)nn1-c1ncccc1Cl | – | – | – | – | – | – | – | – | melting point: 191 °C
Cc1cccc(C(=O)NS(=O)(=O)N(C)C)c1NC(=O)c1cc(C(F)(F)F)nn1-c1ncccc1Cl | – | – | – | – | – | – | – | – | melting point: 183 °C
CCS(C)=NC(=O)c1cc(C#N)cc(C)c1NC(=O)c1cc(C(F)(F)F)nn1-c1ncccc1Cl (stereo not drawn) | – | – | – | – | – | – | – | – | melting point: 65 °C
CCN(C)S(=O)(=O)NC(=O)c1cc(Cl)cc(C)c1NC(=O)c1cc(Br)nn1-c1ncccc1Cl [I.1-7] | – | – | – | – | – | – | – | – | mortality at 300 ppm [1]: > 75%; mortality at 300 ppm ([2]; 72 h): > 75%
Cc1cc(Cl)cc(C(=O)NS(=O)(=O)N(C)C)c1NC(=O)c1cc(Br)nn1-c1ncccc1Cl [I.1-9] | – | – | – | – | – | – | – | – | mortality at 300 ppm [1]: > 75%; mortality at 300 ppm ([2]; 72 h): > 75%
CCN(C)S(=O)(=O)NC(=O)c1cccc(C)c1NC(=O)c1cc(Br)nn1-c1ncccc1Cl [I.1-27] | – | – | – | – | – | – | – | – | mortality at 300 ppm [1]: > 75%; mortality at 300 ppm ([2]; 72 h): > 75%
Cc1cccc(C(=O)NS(=O)(=O)N(C)C)c1NC(=O)c1cc(Br)nn1-c1ncccc1Cl [I.1-30] | – | – | – | – | – | – | – | – | mortality at 300 ppm [1]: > 75%
CCN(CC)S(=O)(=O)NC(=O)c1cc(Cl)cc(C)c1NC(=O)c1cc(C(F)(F)F)nn1-c1ncccc1Cl [I.1-37] | – | – | – | – | – | – | – | – | mortality at 10 ppm [3]: > 70%
CCN(C)S(=O)(=O)NC(=O)c1cc(Cl)cc(C)c1NC(=O)c1cc(C(F)(F)F)nn1-c1ncccc1Cl [I.1-45] | – | – | – | – | – | – | – | – | mortality at 300 ppm [1]: > 75%; mortality at 300 ppm ([2]; 72 h): > 75%
Cc1cc(Cl)cc(C(=O)NS(=O)(=O)N(C)C)c1NC(=O)c1cc(C(F)(F)F)nn1-c1ncccc1Cl [I.1-47] | – | – | – | – | – | – | – | – | mortality at 300 ppm [1]: > 75%; mortality at 300 ppm ([2]; 72 h): > 75%
CCN(CC)S(=O)(=O)NC(=O)c1cccc(C)c1NC(=O)c1cc(C(F)(F)F)nn1-c1ncccc1Cl [I.1-53] | > 75% | – | – | – | – | – | – | – | mortality at 2500 ppm [4]: > 75%; mortality at 300 ppm [1]: > 75%
CCN(C)S(=O)(=O)NC(=O)c1cccc(C)c1NC(=O)c1cc(C(F)(F)F)nn1-c1ncccc1Cl [I.1-61] | – | – | – | – | – | – | – | – | mortality at 300 ppm [1]: > 75%; mortality at 300 ppm ([2]; 72 h): > 75%
CCS(CC)=NC(=O)c1cc(Cl)cc(C)c1NC(=O)c1cc(Br)nn1-c1ncccc1Cl [I.3-3] | > 75% | > 75% | > 75% | > 50% | > 75% | > 90% | – | – | –
Cc1cc(Cl)cc(C(=O)N=S(C)C)c1NC(=O)c1cc(C(F)(F)F)nn1-c1ncccc1Cl [I.3-8] | > 75% | > 75% | > 75% | > 50% | > 75% | > 90% | > 75% | > 75% | –
Cc1cc(I)cc(C(=O)N=S(C)C)c1NC(=O)c1cc(Br)nn1-c1ncccc1Cl [I.3-22] | > 75% | > 75% | > 75% | > 50% | > 75% | > 90% | > 75% | > 75% | –
Cc1cc(I)cc(C(=O)N=S(C)C)c1NC(=O)c1cc(C(F)(F)F)nn1-c1ncccc1Cl [I.3-23] | > 75% | > 75% | > 75% | > 50% | > 75% | > 90% | > 75% | > 75% | –
Cc1cccc(C(=O)N=S(C)C)c1NC(=O)c1cc(C(F)(F)F)nn1-c1ncccc1Cl [I.3-24] | > 75% | > 75% | > 75% | > 50% | > 75% | – | > 75% | > 75% | –
CCS(C)=NC(=O)c1cc(Cl)cc(C)c1NC(=O)c1cc(Br)nn1-c1ncccc1Cl (stereo not drawn) [I.3-25] | > 75% | > 75% | > 75% | > 50% | > 75% | > 90% | > 75% | > 75% | –
CCS(C)=NC(=O)c1cccc(C)c1NC(=O)c1cc(Br)nn1-c1ncccc1Cl (stereo not drawn) [I.3-26] | > 75% | > 75% | > 75% | > 50% | > 75% | > 90% | > 75% | > 75% | –
CCS(C)=NC(=O)c1cc(I)cc(C)c1NC(=O)c1cc(Br)nn1-c1ncccc1Cl (stereo not drawn) [I.3-27] | > 75% | > 75% | > 75% | > 50% | > 75% | > 90% | > 75% | > 75% | –
CCS(C)=NC(=O)c1cc(Cl)cc(C)c1NC(=O)c1cc(C(F)(F)F)nn1-c1ncccc1Cl (stereo not drawn) [I.3-28] | > 75% | > 75% | > 75% | > 50% | > 75% | > 90% | > 75% | > 75% | –
CCS(C)=NC(=O)c1cccc(C)c1NC(=O)c1cc(C(F)(F)F)nn1-c1ncccc1Cl (stereo not drawn) [I.3-29] | > 75% | > 75% | > 75% | > 50% | > 75% | – | > 75% | > 75% | –
CCS(C)=NC(=O)c1cc(I)cc(C)c1NC(=O)c1cc(C(F)(F)F)nn1-c1ncccc1Cl (stereo not drawn) [I.3-30] | > 75% | > 75% | > 75% | > 50% | > 75% | > 90% | > 75% | > 75% | –
Cc1cc(C#N)cc(C(=O)N=S(C)C)c1NC(=O)c1cc(C(F)(F)F)nn1-c1ncccc1Cl [I.3-55] | > 75% | > 75% | > 75% | – | – | – | > 75% | > 75% | –
Cc1cc(C#N)cc(C(=O)N=S(C)C)c1NC(=O)c1cc(Br)nn1-c1ncccc1Cl [I.3-60] | – | – | – | – | – | – | – | > 75% | –
CCS(C)=NC(=O)c1cc(C#N)cc(C)c1NC(=O)c1cc(Br)nn1-c1ncccc1Cl (stereo not drawn) [I.3-61] | – | – | – | – | – | – | – | > 75% | –
Cc1cc(Cl)cc(C(=O)N=S2(=O)CCCCC2)c1CC(=O)c1cc(Br)nn1-c1ccccc1Cl [I.4-22, 2-{2-[5-Bromo-2-(2-chloro-phenyl)-2H-pyrazol-3-yl]-2-oxo-ethyl}-5-chloro-3-methyl-N-(1-oxo-hexahydro-1lambda*6*-thiopyran-1-ylidene)-benzamide] | > 75% | > 75% | > 75% | – | > 75% | – | > 75% | > 75% | –
